Key:
[1] = tested on: caterpillars of the diamond back moth (Plutella xylostella); assay: Plutella test; type: in vivo
Method: [table] To produce a suitable preparation of active compound, 1 part by weight of active compound is mixed with the stated amounts of solvent and emulsifier, and the concentrate is diluted with emulsifier-containing water to the desired concentration. Cabbage leaves (Brassica oleracea) are treated by being dipped into the active compound preparation of the desired concentration and populated with caterpillars of the diamond back moth (Plutella xylostella) while the leaves are still moist. After the desired period of time, the kill in % is determined. 100% means that all caterpillars have been killed; 0% means that none of the caterpillars have been killed.

[2] = tested on: green peach aphid (Myzus persicae); assay: Myzus test (spray treatment, Brassica pekinensis); type: in vivo; details: for Kill rate in % after 5 d: 500 g/ha, spray, Brassica pekinensis disks
Method: (§1) [table] To produce a suitable preparation of active compound, 1 part by weight of active compound is mixed with the stated amounts of solvents and emulsifier, and the concentrate is diluted with emulsifier-containing water to the desired concentration. Disks of Chinese cabbage (Brassica pekinensis) which are infested by all stages of the green peach aphid (Myzus persicae) are sprayed with an active compound preparation of the desired concentration. After the desired period of time, the effect in % is determined. 100% means that all aphids have been killed; 0% means that none of the aphids have been killed.

[3] = tested on: caterpillars of the army worm (Spodoptera frugiperda); assay: Spodoptera frugiperda test (cabbage leaves dipped); type: in vivo; details: for Kill rate in % after 7 d: 500 ppm, leaf dip, Brassica oleracea
Method: (§2) [table] To produce a suitable preparation of active compound, 1 part by weight of active compound is mixed with the stated amount of solvent and the stated amount of emulsifier, and the concentrate is diluted with emulsifier-containing water to the desired concentration. Cabbage leaves (Brassica oleracea) are treated by being dipped into the active compound preparation of the desired concentration and populated with caterpillars of the army worm (Spodoptera frugiperda) while the leaves are still moist. After the desired period of time, the kill in % is determined. 100% means that all caterpillars have been killed; 0% means that none of the caterpillars have been killed.

[4] = logP determination by HPLC on reversed-phase column (C 18), EEC Directive 79/831 Annex V.A8; type: physicochemical; details: reversed-phase C 18, 43° C., acid range (0.1% aqueous phosphoric acid, acetonitrile), marked a)
Summary of the method: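 Reversed-phase C18 HPLC at 43° C, per EEC Directive 79/831 Annex V.A8, acid range: 0.1% aqueous phosphoric acid with linear 10–90% acetonitrile gradient. logP derived from retention time by linear interpolation between calibrating unbranched alkan-2-ones (C3–C16) of known logP.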

Meloidogyne incognita = assay: Meloidogyne test (gall formation on lettuce roots); type: in vivo; details: for Kill rate in % after 14 d (nematicidal effect by gall formation): 20 ppm, lettuce in sand
Method: [table] To produce a suitable preparation of active compound, 1 part by weight of active compound is mixed with the stated amounts of solvent and emulsifier, and the concentrate is diluted with water to the desired concentration. Vessels are filled with sand, active compound solution, Meloidogyne incognita egg/larvae suspension and lettuce seeds. The lettuce seeds germinate and the plants develop. On the roots, galls are formed. After the desired period of time, the nematicidal effect is determined in % by means of gall formation. 100% means that no galls were found; 0% means that the number of galls on the treated plants corresponds to that of the untreated control.

[5] = tested on: green peach aphid (Myzus persicae); assay: Myzus test - oral; type: in vivo; details: for Kill rate in % after 6 d: 100 ppm, oral (sucking)
Method: as §1, with “solvent,” for “solvents and emulsifier,”, “with” for “with emulsifier-containing”, “Vessels” for “Disks of Chinese cabbage (Brassica pekinensis) which”, “populated with” for “infested by”, “persicae), which” for “persicae)”, “treated by sucking on the” for “sprayed with an”

[6] = tested on: larvae of the mustard beetle (Phaedon cochleariae); assay: Phaedon test (spray treatment); type: in vivo; details: for Kill rate in % after 7 d: 500 g/ha, spray, Brassica pekinensis disks
Method: (§3) [table] To produce a suitable preparation of active compound, 1 part by weight of active compound is mixed with the stated amounts of solvents and emulsifier, and the concentrate is diluted with emulsifier-containing water to the desired concentration. Disks of Chinese cabbage (Brassica pekinensis) are sprayed with an active compound preparation of the desired concentration and, after drying, populated with larvae of the mustard beetle (Phaedon cochleariae). After the desired period of time, the effect in % is determined. 100% means that all beetle larvae have been killed; 0% means that none of the beetle larvae have been killed.

[7] = tested on: common spidermite (Tetranychus urticae); assay: Tetranychus test; type: in vivo
Method: To produce a suitable preparation of active compound, 1 part by weight of active compound is mixed with the stated amounts of solvent and emulsifier, and the concentrate is diluted with emulsifier-containing water to the desired concentration.
Disks of beans (Phaseolus vulgaris), which are infested by all stages of the common spidermite (Tetranychus urticae) are sprayed with an active compound preparation of the desired concentration.
After the desired period of time, the effect in % is determined. 100% means that all spidermites have been killed; 0% means that none of the spidermites have been killed.

[8] = tested on: caterpillars of the army worm (Spodoptera frugiperda); assay: Spodoptera frugiperda test (corn leaf disks sprayed); type: in vivo; details: for Kill rate in % after 7 d: 500 g/ha, spray, Zea mays leaf disks
Method: as §3, with “corn leaves (Zea mays)” for “Chinese cabbage (Brassica pekinensis)”, “caterpillars” for “larvae”, “army worm (Spodoptera frugiperda).” for “mustard beetle (Phaedon cochleariae).”, “caterpillars” for “beetle larvae”

[9] = tested on: larvae of the mustard beetle (Phaedon cochleariae); assay: Phaedon larvae test (cabbage leaves dipped); type: in vivo
Method: as §2, with “with” for “with emulsifier-containing”, “with larvae” for “with caterpillars”, “the mustard beetle (Phaedon cochleariae)” for “the army worm (Spodoptera frugiperda)”, “all beetle larvae” for “all caterpillars”, “the beetle larvae” for “the caterpillars”

| logP [4] | SMILES | activity in the Spodoptera frugiperda test (leaf dip) [3] | Kill rate in % after 7 d [3] [%] | activity in the Myzus test - oral [5] | activity in the Phaedon test (spray treatment) [6] | Kill rate in % after 7 d [6] [%] | Kill rate in % after 6 d [5] [%] | activity in the Spodoptera frugiperda test (spray) [8] | Kill rate in % after 7 d [8] [%] | other results |
| --- | --- | --- | --- | --- | --- | --- | --- | --- | --- | --- |
| logP = 3.97^a) | O=C1C(O)=C(c2ccc(OC(F)(F)F)cc2)C(=O)N1c1ccc(C(F)(F)F)cc1 [Example 12] | good activity | 100 | – | – | – | – | – | – | – |
| logP = 3.51^a) | O=C1C(O)=C(c2ccc(C(F)(F)F)cc2)C(=O)N1c1ccc(C(F)(F)F)cc1 [Example 13] | good activity | 100 | – | – | – | – | – | – | – |
| logP = 3.56^a) | O=C1C(O)=C(c2ccc(F)cc2C(F)(F)F)C(=O)N1C1CCCC(C(F)(F)F)C1 (centres unmarked) [Example 192] | – | – | good activity | good activity | 100 | – | – | – | activity in the Tetranychus test [7]: good activity; Kill rate in % after 5 d ([7]; 500 ppm, spray, Phaseolus vulgaris disks): 90% |
| logP = 3.57^a) | CC1CCCC(N2C(=O)C(O)=C(c3ccccc3Cl)C2=O)C1 (centres unmarked) [Example 196] | – | – | good activity | good activity | 100 | 100 | good activity | 100 | – |
| logP = 3.27^a) | O=C1C(O)=C(c2ccccc2Cl)C(=O)N1C1CCCCC1C(F)(F)F (centres unmarked) [Example 205] | – | – | – | good activity | 100 | 100 | – | – | – |
| logP = 4.48^a) | O=C1C(O)=C(c2cc(Cl)cc(Cl)c2)C(=O)N1C1CCC(C(F)(F)F)CC1 (centres unmarked) [Example 212] | good activity | 100 | – | good activity | 100 | – | good activity | 100 | activity in the Phaedon larvae test [9]: good activity; Kill rate in % after 7 d ([9]; 500 ppm, leaf dip, Brassica oleracea): 100% |
| logP = 3.04^a) | N#Cc1ccc(C2=C(O)C(=O)N(C3CCCC(C(F)(F)F)C3)C2=O)cc1 (centres unmarked) [Example 215] | good activity | 85 | – | – | – | – | – | – | activity in the Meloidogyne test (Meloidogyne incognita): good activity; Kill rate in % after 14 d (nematicidal effect by gall formation) (Meloidogyne incognita): 80% |

Second part, the molecule before the results:

| SMILES | logP [4] | activity in the Spodoptera frugiperda test (leaf dip) [3] | Kill rate in % after 7 d [3] [%] | activity in the Myzus test - oral [5] | activity in the Phaedon test (spray treatment) [6] | Kill rate in % after 7 d [6] [%] | Kill rate in % after 6 d [5] [%] | activity in the Spodoptera frugiperda test (spray) [8] | Kill rate in % after 7 d [8] [%] | other results |
| --- | --- | --- | --- | --- | --- | --- | --- | --- | --- | --- |
| CCN1C(=O)C(OC(C)=O)=C(c2c(C)cc(C)cc2C)C1=O [Example 3] | – | – | – | – | – | – | – | – | – | activity in the Plutella test [1]: good activity; Kill rate in % after 7 d ([1]; 1000 ppm, leaf dip): 90%; activity in the Myzus test (spray, Brassica pekinensis) [2]: good activity; Kill rate in % after 5 d [2]: 90% |
| O=C1C(O)=C(c2ccc(C(F)(F)F)cc2)C(=O)N1c1ccc(OC(F)(F)F)cc1 [Example 10] | logP = 3.64^a) | good activity | 100 | – | – | – | – | – | – | activity in the Meloidogyne test (Meloidogyne incognita): good activity; Kill rate in % after 14 d (nematicidal effect by gall formation) (Meloidogyne incognita): 99% |
| O=C1C(O)=C(c2cc(Cl)cc(Cl)c2)C(=O)N1c1ccc(Cl)cc1 [Example 11] | logP = 3.27^a) | good activity | 100 | – | – | – | – | – | – | – |
| CC(C)C1CCCC(N2C(=O)C(O)=C(c3ccccc3Cl)C2=O)C1 (centres unmarked) [Example 195] | – | – | – | good activity | good activity | 100 | 100 | good activity | 100 | – |
| O=C1C(O)=C(c2ccccc2C(F)(F)F)C(=O)N1C1CCCC(C(F)(F)F)C1 (centres unmarked) [Example 217] | – | – | – | good activity | good activity | 100 | 100 | good activity | 100 | activity in the Myzus test (spray, Brassica pekinensis) [2]: good activity; Kill rate in % after 5 d [2]: 100% |
| O=C1C(O)=C(c2ccccc2I)C(=O)N1C1CCCC(C(F)(F)F)C1 (centres unmarked) [Example 219] | – | – | – | good activity | good activity | 100 | 100 | good activity | 100 | activity in the Myzus test (spray, Brassica pekinensis) [2]: good activity; Kill rate in % after 5 d [2]: 90% |
| CC(C)(C)C(=O)OC1=C(c2ccccc2C(F)(F)F)C(=O)N(C2CCCC(C(F)(F)F)C2)C1=O (centres unmarked) [Example 220] | – | – | – | – | good activity | 100 | – | – | – | activity in the Myzus test (spray, Brassica pekinensis) [2]: good activity; Kill rate in % after 5 d [2]: 100%; activity in the Meloidogyne test (Meloidogyne incognita): good activity; Kill rate in % after 14 d (nematicidal effect by gall formation) (Meloidogyne incognita): 80% |

— patent US20090099192A1, “Substituted 1H-pyrrole-2,5-diones” (Bayer CropScience AG, priority 2004, published 2009)
